Substitutions are numbered along the chain they refer to. Entries after “also recorded” stand apart in the source; their conditions may differ.
Columns and labels:
AR F876L [1] = biological target: T1, AR F876L (Homo sapiens, UniProt P10275, DEL79-80/DUP473-473/F877L); assay: AR luciferase reporter assay, AR F876L versus AR WT (FIG. 26); type: cell-based
T1 construct: expressed in transfected cells
T1 sequence (P10275 with tags, fused parts or gaps DEL79-80/DUP473-473/F877L): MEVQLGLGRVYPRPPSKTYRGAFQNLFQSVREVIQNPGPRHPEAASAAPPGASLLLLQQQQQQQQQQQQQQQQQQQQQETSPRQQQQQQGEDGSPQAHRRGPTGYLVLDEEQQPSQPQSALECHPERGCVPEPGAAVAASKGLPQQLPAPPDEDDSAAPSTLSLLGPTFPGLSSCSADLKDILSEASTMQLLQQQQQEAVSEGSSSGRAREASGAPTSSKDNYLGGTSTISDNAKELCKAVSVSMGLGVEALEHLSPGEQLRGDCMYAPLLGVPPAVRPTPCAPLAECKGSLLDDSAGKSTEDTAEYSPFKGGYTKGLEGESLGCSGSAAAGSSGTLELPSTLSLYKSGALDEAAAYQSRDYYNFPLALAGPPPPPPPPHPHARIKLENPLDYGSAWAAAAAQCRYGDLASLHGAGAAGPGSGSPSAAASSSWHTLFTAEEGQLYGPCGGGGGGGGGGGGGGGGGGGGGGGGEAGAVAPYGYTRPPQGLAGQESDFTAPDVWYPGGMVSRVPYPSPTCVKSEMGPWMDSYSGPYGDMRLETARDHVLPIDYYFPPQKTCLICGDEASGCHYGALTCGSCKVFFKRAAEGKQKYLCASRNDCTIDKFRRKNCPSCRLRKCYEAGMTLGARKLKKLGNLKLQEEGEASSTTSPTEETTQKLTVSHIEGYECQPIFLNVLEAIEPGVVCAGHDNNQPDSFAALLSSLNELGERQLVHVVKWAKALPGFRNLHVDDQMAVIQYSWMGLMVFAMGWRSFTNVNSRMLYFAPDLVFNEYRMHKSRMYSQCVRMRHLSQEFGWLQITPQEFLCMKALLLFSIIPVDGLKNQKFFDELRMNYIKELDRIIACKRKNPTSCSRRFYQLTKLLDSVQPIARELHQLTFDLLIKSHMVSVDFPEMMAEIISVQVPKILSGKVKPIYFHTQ
Method: (§1) Compounds of the present invention were assayed in an in vitro AR luciferase reporter assay reporter assay, which can be used to determine the effect of compounds on AR transcriptional activity. CV1 cells were engineered to express an AR-regulated luciferase reporter, such that luciferase expression indicates AR transcriptional activity. A representative procedure for this assay follows.
(§2) CV1 cells (10^6 cells/10 cm plate) were cotransfected with 50 ng of SV40 Renilla Luciferase, 5 ug of ARE(4X)-Luciferase, and […] of one pWZL-AR expression construct using Lipofectamine 2000 (Invitrogen). Transfection media was removed 4-6 hours later and replaced with phenol red free DME-HG containing 10% charcoal stripped serum. The following day each plate was split into 24- or 48-well plates, in 10% CSS media, containing the indicated drugs in triplicate. Twenty-four to forty-eight hours later, luciferase activity was assayed using Dual-Luciferase Reporter Assay System (Promega) on a 96-well luminometer (Turner Biosystems). In some embodiments, a provided compound is considered to be a modulator of a tested AR if it results in similar effects on induced expression of luciferase in the luciferase reporter assay as compared with a reference androgen or anti-androgen.

[2] = system: CWR22PC cells expressing mutant F876L androgen receptor; assay: In vitro cell viability assay (CellTiterGLO), CWR22PC cells expressing AR F876L (FIG. 18); type: cell-based; settings: 10 uM, days 1, 4, 7
Method: (§3) Compounds of the present invention were also assayed in an in vitro cell viability assay in CWR22PC cancer cells. A representative procedure follows. CWR22PC cells ectopically expressing wild-type AR or AR F876L, cultured in full-serum containing media, were treated with vehicle (DMSO) or 10 uM of enzalutamide or compound I-1. CellTiterGLO assay was performed on days 1, 4, and 7 to determine cell viability. Results of a cell viability assay in CWR22PC cells are depicted in FIG. 18. On the y-axis RLU means relative light units. More light […] means more viable cells. In some embodiments, a provided compound is considered to be a modulator of a tested AR if it results in similar effects on cell viability as compared with a reference androgen or anti-androgen.

AR WT [3] = assay: AR signaling and PARP cleavage in cells expressing AR WT (FIG. 27); type: cell-based
[4] = system: CWR22PC cells expressing wild type androgen receptor; assay: In vitro cell viability assay (CellTiterGLO), CWR22PC cells expressing wild-type AR (FIG. 18); type: cell-based; settings: 10 uM, days 1, 4, 7
Method: as §3

AR F876L [5] = biological target: T1, AR F876L; assay: AR signaling and PARP cleavage in cells expressing AR F876L (FIG. 27); type: cell-based
AR = biological target: T2, AR (Homo sapiens, UniProt P10275, DEL79-80/DUP473-473); assay: AR luciferase reporter assay, competition with DHT (FIG. 25); type: cell-based
T2 construct: expressed in transfected cells; host or cells: CV1 cells
T2 sequence (P10275 with tags, fused parts or gaps DEL79-80/DUP473-473): T1 sequence (P10275 with tags, fused parts or gaps DEL79-80/DUP473-473/F877L) with L876F
Method: as §1, §2

[6] = system: VCaP cells expressing wild type androgen receptor; assay: In vitro cell viability assay, VCaP cells expressing wild type AR (FIG. 17); type: cell-based
[7] = system: VCaP cells expressing mutant F876L androgen receptor; assay: In vitro cell viability assay, VCaP cells expressing mutant F876L AR (FIG. 17); type: cell-based
AR WT [8] = settings: LNCaP cells ectopically expressing AR WT; compared with AR F876L cells
Method: The cells were propagated in RPMI media supplemented with 10% CSS (charcoal-stripped, dextran-treated fetal bovine serum). Cells were trypsinized, washed in PBS, and triplicate cell samples were mixed with 20,000 cpm 18F-FDHT and increasing amounts of cold competitor (0.1 nM to 10 uM). The solutions were shaken on an orbital shaker at ambient temperature, and after 1 hour the cells were isolated and washed with ice-cold Tris-buffered saline using a Brandel cell harvester (Gaithersburg, Md.). All the isolated cell samples were counted using a scintillation counter, with appropriate standards of total activity and blank controls, and the specific uptake of ^18F-FDHT determined.

mutant AR T877A [9] = biological target: T3, mutant AR T877A (Homo sapiens, UniProt P10275, DEL79-80/DUP473-473/T878A); settings: cited from earlier work
T3 sequence (P10275 with tags, fused parts or gaps DEL79-80/DUP473-473/T878A): T1 sequence (P10275 with tags, fused parts or gaps DEL79-80/DUP473-473/F877L) with L876F, T877A

mutant AR T877A [10] = biological target: T3, mutant AR T877A; settings: Ozers et al., Biochemistry (2007) 46, 683; cited from earlier work

SMILES: CNC(=O)c1ccc(N2C(=S)N(c3ccc(C#N)c(C(F)(F)F)c3)C(=O)[C@@]23CCCC(C)(C)C3)cc1F (stereo in doubt) [Compound I-1, 4-(3-(4-cyano-3-(trifluoromethyl)phenyl)-7,7-dimethyl-4-oxo-2-thioxo-1,3-diazaspiro[4.5]decan-1-yl)-2-fluoro-N-methylbenzamide]
- potency as agonist for AR F876L compared with AR WT (AR F876L [1]): more potent agonist for AR F876L than AR WT
- ability to kill or inhibit the growth of cells [2]: kill or inhibit the growth of CWR22PC cells
- induction of PARP cleavage (AR WT [3]): induce PARP cleavage
- inhibition of AR signaling (AR WT [3]): inhibit AR signaling
- ability to kill or inhibit the growth of cells [4]: kill or inhibit the growth of CWR22PC cells
- induction of PARP cleavage (AR F876L [5]): induce PARP cleavage
- inhibition of AR signaling (AR F876L [5]): inhibit AR signaling
- competition with dihydrotestosterone (DHT) for AR binding and induction of AR-regulated luciferase (AR): effectively competes with dihydrotestosterone (DHT)
- ability to kill or inhibit the growth of cells [6]: kill or inhibit the growth of VCaP cells
- ability to kill or inhibit the growth of cells [7]: kill or inhibit the growth of VCaP cells

SMILES: C[C@]12CCC(=O)C[C@@H]1CC[C@@H]1[C@@H]2CC[C@]2(C)[C@@H](O)CC[C@@H]12 [DHT, dihydrotestosterone]
- IC50 for displacement of 18F-FDHT (AR WT [8]): comparable IC50

SMILES: CC(C)(O)C(=O)Nc1ccc([N+](=O)[O-])c(C(F)(F)F)c1 [hydroxyflutamide]
- agonist activity on mutant AR (mutant AR T877A [9]): act as AR agonists; also recorded: confers agonism
- binding affinity to mutant AR T877A compared with AR WT (mutant AR T877A [10]): higher affinity

Source: patent US11739069B2, “Modulators of resistant androgen receptor” (priority 2012, dated 2023)
